# Tests used:
# MCF-7 = assay: CellTiter-Glo cell proliferation inhibition, MCF-7 (Effect Example 2); type: cell-based; conditions: Homo sapiens, MCF7, 144 h, MCF-7 (CTG), 6 days, starting concentration 10 μM; for inhibition at up to 10 µM: read-out: IH % max (maximum inhibition percentage)
# Procedure, shortened: (§1)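 MCF-7, TamR-MCF-7, and CRISPR-edited MCF-7 ER D538G or Y537S cells were seeded at 1,000 or 2,000 cells/well in EMEM and cultured 24 h. They were then exposed to a 4-fold, 10-point series (top 10 µM before addition to wells) for 6 days or 72 h at 37 °C. CellTiter-Glo luminescence gave IC50 and maximum % inhibition.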
# TamR-MCF-7 = assay: CellTiter-Glo cell proliferation inhibition, TamR-MCF-7; type: cell-based; conditions: 144 h, TamR-MCF-7 (CTG), 6 days, starting concentration 10 μM; for inhibition at up to 10 µM: read-out: IH % max (maximum inhibition percentage)
# Procedure, shortened: as §1
# MCF-7 ER^D538G = assay: CellTiter-Glo cell proliferation inhibition, MCF-7 ER^D538G; type: cell-based; conditions: Homo sapiens, MCF7, 144 h, MCF-7 ER^D538G (CTG), 6 days, starting concentration 10 μM; for inhibition at up to 10 µM: read-out: IH % max (maximum inhibition percentage)
# Procedure, shortened: as §1
# MCF-7 ER^Y537S = assay: CellTiter-Glo cell proliferation inhibition, MCF-7 ER^Y537S; type: cell-based; conditions: Homo sapiens, MCF7, 144 h; MCF-7 ER^Y537S (CTG), 6 days, starting concentration 10 μM; read-out: IH % max (maximum inhibition percentage)
# Procedure, shortened: as §1
# MDA-MB-231 = assay: CellTiter-Glo cell proliferation inhibition, MDA-MB-231; type: cell-based; conditions: Homo sapiens, 144 h; MDA-MB-231 (CTG), 6 days, starting concentration 10 μM; read-out: IH % max (maximum inhibition percentage)
# Source text: 1. Cell line • (1) Breast cancer cell lines and their culture media: • MCF-7 (ATCC; Cat. No.: HTB-22), a Luminal A breast cancer cell; • TamR-MCF-7 (ATCC; Cat. No.: CRL-3435), a breast cancer cell; • MCF-7 ER^D538G: a Luminal A breast cancer cell obtained by constructing MCF-7 (ATCC; Cat. No.: HTB-22) using CRISPR-Cas9 gene editing technology; • MCF-7 ER^Y537S: a Luminal A breast cancer cell obtained by constructing MCF-7 (ATCC; Cat. No.: HTB-22) using CRISPR-Cas9 gene editing technology; • MDA-MB-231: (manufacturer: Nanjing CoBioer Biosciences Co., Ltd.), a triple-negative breast cancer cell; • MDA-MB-468: (manufacturer: Nanjing CoBioer Biosciences Co., Ltd.), a triple-negative breast cancer cell.
# Herein, the culture medium of MCF-7, TamR-MCF-7, MCF-7 ER^D538G, and MCF-7 ER^Y537S was EMEM; • the culture medium of MDA-MB-231 and MDA-MB-468 was DMEM.
# 2. Reagents • Culture medium EMEM (Gibco, 1964507) • Culture medium DMEM (Gibco, 12430-054) • Fetal bovine serum (Gibco, 10091148) • Penicillin-streptomycin double antibody (Gibco, S110JV) • DPBS (Gibco, 14190-144) • CellTiter-Glo® assay kit (Promega, G7573) • Trypsin (0.25%) (Gibco, 25200-056) • DMSO (Sigma, D2650)
# 3. Instruments • Biosafety cabinet (AIRTECH, BSC-1300A II) • Automated cell counter (Life Technologies, countess II) • Multifunctional microplate reader (Biotek, H1FM) • Orbital shaker (Hangzhou Allsheng Instruments Co., Ltd., OS-100) • XLFIT 5.3 (Inforstack Shanghai Co., Ltd.)
# For this test method, the following experiments were performed in a biosafety cabinet, with the specific steps as follows: • (1) Cells were inoculated in a 96-well plate. One day later, the previous culture medium was poured off, 5 mL of DPBS was added to wash the cells, and then DPBS was pipetted and discarded. An appropriate amount of trypsin was then added. The plate was digested in a 37° C., 5% CO2 cell incubator for about 2 to 5 minutes and then taken out. Anew corresponding culture medium was added, and pipetted up and down to resuspend the cells evenly. The cells were then counted using an automated cell counter. • (2) Each cell was inoculated in columns 1 to 11 of a 96-well plate (Corning, Cat. No.: 3610) at a density of 1,000 or 2,000 cells per well in 100 μL of culture medium, and 100 μL of the corresponding culture medium without cells was added to the wells in column 12. The plate was then placed in a 37° C., 5% CO2 incubator for 24 hours. • (3) The compound of the present disclosure and the control drug fulvestrant (Selleck; Cat. No.: S1191) were then 4-fold serially diluted to 10 dose points starting at 10 μM. 10 μL of the serially diluted compound was pipetted and added to 100 μL of cells in columns 1 to 10, and 10 μL of the corresponding culture medium containing 0.33 v % DMSO was added to both columns 11 and 12. The plate was incubated in a 37° C., 5% CO2 incubator for 6 days or 72 hours (Note: column 11 was used as a MAX well with cells but without compound; column 12 was used as a MIN well without cells […]). • (4) The cell viability detection reagent in the CellTiter-Glo® assay kit was then added to the 96-well plate at 50 μL per well according to the instructions, and shaken on an orbital shaker in the dark for 5 to 10 minutes. The cell viability was then measured using a multifunctional microplate reader. Finally, the inhibition of cell proliferation by the compound of the present disclosure was plotted by XLFIT software, and the IC50 value (half inhibitory concentration) and the IH % max (maximum inhibition percentage) of the compound of the present disclosure were calculated.
# Compounds D64 to D69 were tested for MDA-MB-231 (CTG) and MDA-MB-468 (CTG) with an incubation time of 72 hours in the incubator.
# MDA-MB-468 = assay: CellTiter-Glo cell proliferation inhibition, MDA-MB-468; type: cell-based; conditions: Homo sapiens, 144 h; MDA-MB-468 (CTG), 6 days, starting concentration 10 μM; read-out: IH % max (maximum inhibition percentage)
# estrogen receptor = molecular target: T1, estrogen receptor (Homo sapiens, UniProt P03372); conditions: background section; cited from earlier work
# T1 sequence (P03372 1-595): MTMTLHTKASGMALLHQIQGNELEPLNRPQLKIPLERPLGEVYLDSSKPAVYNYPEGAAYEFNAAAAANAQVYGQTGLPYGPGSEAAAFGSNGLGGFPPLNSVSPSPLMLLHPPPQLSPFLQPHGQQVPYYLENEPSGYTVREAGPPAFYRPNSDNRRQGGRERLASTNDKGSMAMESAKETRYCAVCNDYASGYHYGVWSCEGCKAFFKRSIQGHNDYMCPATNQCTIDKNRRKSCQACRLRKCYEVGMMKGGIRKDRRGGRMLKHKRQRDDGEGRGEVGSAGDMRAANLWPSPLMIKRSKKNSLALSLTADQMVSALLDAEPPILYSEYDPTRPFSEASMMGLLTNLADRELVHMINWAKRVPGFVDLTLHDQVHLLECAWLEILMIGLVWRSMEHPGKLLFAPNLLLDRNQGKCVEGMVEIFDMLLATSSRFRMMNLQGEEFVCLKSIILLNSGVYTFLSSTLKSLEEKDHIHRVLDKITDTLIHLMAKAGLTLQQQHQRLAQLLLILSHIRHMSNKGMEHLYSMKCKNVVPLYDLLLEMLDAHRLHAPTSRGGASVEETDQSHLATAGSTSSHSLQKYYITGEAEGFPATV
structure (smiles),measurement,setting,value
"CCN(CCOc1ccc(Oc2c(-c3ccc(S(C)(=O)=O)cc3)ccc3cc(O)ccc23)cc1)C(=O)c1ccc(CCC2CCN(C3CCN(c4cccc5c4C(=O)N(C4CCC(=O)NC4=O)C5=O)CC3)CC2)cc1 (stereo not shown) [Compound D33, 4-(2-(1′-(2-(2,6-dioxopiperidin-3-yl)-1,3-dioxoisoindolin-4-yl)-[1,4′-bipiperidin]-4-yl)ethyl)-N-ethyl-N-(2-(4-((6-hydroxy-2-(4-(methylsulfonyl)phenyl)naphthalen-1-yl)oxy)phenoxy)ethyl)benzamide]",inhibition at up to 10 µM,MCF-7,45%
same,inhibition at up to 10 µM,TamR-MCF-7,45%
same,IC50,MCF-7 ER^D538G,288 nM
same,inhibition at up to 10 µM,MCF-7 ER^D538G,92%
same,inhibition at up to 10 µM,MCF-7 ER^Y537S,76%
same,inhibition at up to 10 µM,MDA-MB-231,57%
same,inhibition at up to 10 µM,MDA-MB-468,94%
CCN(CCOCCOCCN1CCN(c2ccc3c(c2)C(=O)N(C2CCC(=O)NC2=O)C3)CC1)CCOc1ccc(Oc2c(-c3ccc(S(C)(=O)=O)cc3)ccc3cc(O)ccc23)cc1 (stereo not shown) [Compound D49],inhibition at up to 10 µM,MCF-7,42%
same,inhibition at up to 10 µM,TamR-MCF-7,42%
same,IC50,MCF-7 ER^D538G,202 nM
same,inhibition at up to 10 µM,MCF-7 ER^D538G,96%
same,inhibition at up to 10 µM,MCF-7 ER^Y537S,86%
same,inhibition at up to 10 µM,MDA-MB-231,97%
same,inhibition at up to 10 µM,MDA-MB-468,99%
"CS(=O)(=O)c1ccc(-c2ccc3cc(O)ccc3c2Oc2ccc(OCCNCCCCCNc3cccc4c3C(=O)N(C3CCC(=O)NC3=O)C4=O)cc2)cc1 (stereo not shown) [Compound D60, 2-(2,6-dioxopiperidin-3-yl)-4-((5-((2-(4-((6-hydroxy-2-(4-(methylsulfonyl)phenyl)naphthalen-1-yl)oxy)phenoxy)ethyl)amino)pentyl)amino)isoindoline-1,3-dione]",IC50,MCF-7,954 nM
same,inhibition at up to 10 µM,MCF-7,82%
same,inhibition at up to 10 µM,TamR-MCF-7,50%
same,IC50,MCF-7 ER^D538G,977 nM
same,inhibition at up to 10 µM,MCF-7 ER^D538G,96%
same,inhibition at up to 10 µM,MCF-7 ER^Y537S,92%
same,inhibition at up to 10 µM,MDA-MB-231,96%
same,inhibition at up to 10 µM,MDA-MB-468,51%
"C[C@]12CC[C@@H]3c4ccc(O)cc4C[C@@H](CCCCCCCCC[S+]([O-])CCCC(F)(F)C(F)(F)F)[C@H]3[C@@H]1CC[C@@H]2O (stereo partly shown) [Fulvestrant, fulvestrant, reference compound]",IC50,MCF-7,1.6 nM
same,inhibition at up to 10 µM,MCF-7,80.7%
same,IC50,TamR-MCF-7,115 nM
same,inhibition at up to 10 µM,TamR-MCF-7,71.8%
same,inhibition at up to 10 µM,MDA-MB-468,39.4%
same,maximum protein degradation rate,estrogen receptor,about 61%
